Source: patent US20180201662A1, “PEPTIDE FOR PROMOTING CELL MIGRATION AND/OR SKIN WOUND HEALING, PHARMACEUTICAL COMPOSITION CONTAINING THE SAME, AND APPLICATION THEREOF” (Industrial Technology Research Institute, priority 2016, published 2018)
Where no end group is shown, it is not given here. [ ]: non-standard residue; d: D form.

Key:
Format in all cases: cell-based
[1] = test system: human monocyte-derived macrophages; experiment: MCP-1 secretion of human monocyte-derived macrophages stimulated with peptides (ELISA)
Method: (§1) Peripheral blood mononuclear cells were isolated from leukocytes in the blood of healthy donors by Ficoll Hypaque.
(§2) Monocytes were isolated from the peripheral blood mononuclear cells by using Human MACS CD14 Isolation Kit.
(§3) Monocytes (2×10^6 cells/mL) were seeded in a 6-well plate containing 2 mL fresh complete medium and cultured at 5% CO2, 37° C. for 6 days. The medium was changed every 2-3 days to make the monocytes differentiate to macrophages.
(§4) 3. Detections of MCP-1 Secretion of Human Umbilical Vein Endothelial Cells HUVECs and Human Monocyte-Derived Macrophages Stimulated with Peptides
(§5) Peptides were added to respective wells of a culturing plate to stimulate HUVECs for 24-48 hours, or to stimulate macrophages for 48 hours. In the experiment for macrophages, macrophages not stimulated were used as a blank group.
(§6) 3.2.1 MCP-1 respectively secreted from HUVECs and macrophages to the supernatant of the culture was detected by a […].
(§7) 3.2.2 Absorbance of the supernatant of the culture at 450-540 nm was detected by a SpectraMax M5 microplate reader. Detection limitation of this ELISA kit to MCP-1 is about […].

[2] = test system: human monocyte-derived macrophages; experiment: TNF-α secretion of monocyte-derived macrophages stimulated with peptides (ELISA)
Method: as §1, §2, §3
2. Detection of TNF-α Secretion of Monocyte-Derived Macrophages Stimulated with Peptides
Peptides were added to respective wells of a culturing plate to stimulate macrophages for 48 hours. Macrophages not stimulated were used as a blank group.
2.2.1 TNF-α secreted from macrophages to the supernatant of the culture was detected by a human TNF-α kit.
2.2.2 Absorbance of the supernatant of the culture at 450-540 nm was detected by a SpectraMax M5 microplate reader. Detection limitation of this ELISA kit to TNF-α is about […].

[3] = test system: human umbilical vein endothelial cells (HUVEC); experiment: MCP-1 secretion of human umbilical vein endothelial cells HUVECs stimulated with peptides (ELISA); conditions: Peptide 6 660 and 165 μg/ml, IL-6 200 and 50 ng/ml, FIG. 2A
Method: as §4, §5, §6, §7

[4] = test system: human keratinocyte cell line HaCaT; experiment: MMP9 secretion of human keratinocyte cell line HaCaT stimulated with peptides (ELISA); conditions: 48 hours; peptides 1.5, 1 and 0.5 mg/ml vs IL-6 1000 and 100 ng/ml; FIG. 9
Method: 5. Detection of MMP9 Secretion of Human Keratinocyte Cell Line HaCaT Stimulated with Peptides
Peptides were added to respective wells of a culturing plate to stimulate HaCaT cells for 48 hours. HaCaT cells not stimulated were used as a blank group.
5.2.1 MMP9 secreted from HaCaT cells to the supernatant of the culture was detected by a MMP9 kit (R&D systems, Human MMP-9 DuoSet ELISA (DY911)).
5.2.2 Absorbance of the supernatant of the culture at 450-540 nm was detected by a SpectraMax M5 microplate reader. Detection limitation of this ELISA kit to MMP9 is about […].

[5] = test system: human keratinocyte cell line HaCaT; experiment: Cell migration analysis of human keratinocyte cell line HaCaT stimulated with peptides (scratch); conditions: compared to control group; concentrations of 300 μg/ml, 660 μg/ml and 1000 μg/ml; 18 hour; FIG. 3A, 3B
Method: 4. Cell Migration Analysis of Human Keratinocyte Cell Line HaCaT Stimulated with Peptides
4.1 Each well of a 12-well culturing plate was coated with 100 μg/ml of collagen (in 0.02N acetic acid) (0.5 ml/well).
4.2 The culturing plate was placed at 37° C. for 1 hour, and then was washed with Dulbecco's phosphate buffered saline (DPBS) one time.
4.3 HaCaT cells were seeded in the culturing plate with DMEM containing serum (5×10^5 cells/well), and the final serum concentration for each well was 10%.
4.4 The cells were cultured in a condition of 5% CO2, 37° C.
4.5 The medium was replaced with DMEM containing 0.6% serum for serum starvation and culture the cells overnight.
4.6 The bottom of the well of the culturing plate was scraped with 1000 μl tips, and the culturing plate was washed with Dulbecco's phosphate buffered saline twice.
4.7 The cells and peptides were cultured in DMEM containing 0.6% serum. HaCaT cells not stimulated with peptides or growth factors were used as a control group.
4.8 Photographs were taken at 0 hour and 18 hour.
4.9. The photographs were analyzed by Celllmage Comp software, and the migration distances for cells were calculated.

[6] = macrophages of Donor 5, 48 hours, peptides 50 μg/ml vs IL-6 200 ng/ml, FIG. 13
[7] = macrophages of Donor 5, 48 hours, peptides 50 μg/ml, IL-6 200 ng/ml, FIG. 12
[8] = macrophages of Donors 1-3, 48 hours, Peptide 6 125-1000 μg/ml, IL-6 5-200 ng/ml, FIG. 2B-2D
[9] = macrophages of Donor 4, 48 hours, peptides up to 250 μg/ml, IL-6 100 ng/ml and 50 ng/ml, FIG. 7
[10] = macrophages of Donors 1-3, 48 hours, Peptide 6 up to 1000 μg/ml, IL-6 50 ng/ml, FIG. 1A-1C
[11] = macrophages of Donor 4, 48 hours, peptides 50 ng/ml-250 μg/ml vs IL-6 100 and 50 ng/ml, FIG. 8

Substance	MCP-1 secretion of macrophages [1, 6]	TNF-α secretion of macrophages [2, 7]	MCP-1 secretion of HUVECs [3]	MCP-1 secretion of macrophages [1, 8]	TNF-α secretion of macrophages [2, 9]	TNF-α secretion of macrophages [2, 10]	MMP9 secretion of HaCaT [4]	MCP-1 secretion of macrophages [1, 11]	cell migration of HaCaT [5]
6M14: short form peptide of Peptide 6, sequence SEQ ID NO. 3 (EQARAVQMSTKVLI) [Peptide 6M14]	a higher level of MCP-1 secretion than IL-6	almost do not induce TNF-α secretion	–	–	–	–	–	–	–
IL-6: interleukin; mature form has the sequence of SEQ ID NO. 1; comparator	–	a great quantity of TNF-α	a lower quantity of MCP-1	a lower quantity of MCP-1	a great quantity of TNF-α	can induce macrophages to secrete TNF-α	–	–	–
ITRI-2: isoform of Peptide 6 (SEQ ID NO. 6) with one D-form amino acid: valine at position 13 (NRFESSEEQARA[dV]QMSTKVLIQFLQKKA)	–	–	–	–	a low level of TNF-α	–	a higher level of MMP9 secretion than IL-6	a higher level of MCP-1 secretion than IL-6	–
Peptide 6: IL-6-derived peptide, sequence SEQ ID NO. 6, corresponds to amino acids of positions 102 to 129 of mature form IL-6 (NRFESSEEQARAVQMSTKVLIQFLQKKA)	a higher level of MCP-1 secretion than IL-6	almost do not induce TNF-α secretion	a great quantity of MCP-1	a great quantity of MCP-1	a low level of TNF-α	does not induce macrophages to secrete TNF-α	a higher level of MMP9 secretion than IL-6	a higher level of MCP-1 secretion than IL-6	can promote cell migration
